A short description of series [1]: Stability in aqueous media (PBS pH 7.4). It counts as physicochemical. Set-up: unit not given here. To be noted: phosphate buffer solution (PBS); PBS pH 7.4, 37° C., samples at T=0, 4, 24, 96 h; read-out: Stability grading (t1/2). From the text: LC/MS data was collected for compound identity.
Series [2] deals with T1, GnRHR (Homo sapiens, UniProt P30968).
T1 construct: host or cells: CHO-K1 (CHO-K1/GnRHR/Ga15)
T1 sequence (P30968 1-328): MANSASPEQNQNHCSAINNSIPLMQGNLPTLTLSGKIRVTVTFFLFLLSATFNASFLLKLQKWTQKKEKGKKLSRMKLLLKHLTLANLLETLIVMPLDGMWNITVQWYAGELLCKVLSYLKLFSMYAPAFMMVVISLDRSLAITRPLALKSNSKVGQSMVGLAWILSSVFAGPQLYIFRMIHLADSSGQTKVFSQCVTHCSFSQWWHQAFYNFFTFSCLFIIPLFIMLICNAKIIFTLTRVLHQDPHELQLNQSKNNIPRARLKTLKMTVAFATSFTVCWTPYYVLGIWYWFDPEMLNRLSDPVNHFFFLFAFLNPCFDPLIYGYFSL
Description: Calcium assay in CHO-K1 cells (Genscript), FLIPR. It counts as cell-based. To be noted: CHO-K1/GnRHR/Ga15 cells, relative to agonist control, read-out: GNRHR Stimulation at 1 μM. The procedure:
Test article sample solutions were dissolved in HBSS buffer (with 20 mM HEPES buffer, pH 7.4) to form the 5× working solution. FLIPR® Calcium 4 assay kit from Molecular devices (R8141) was used as required. In brief, CHO-K1 cells expressing GnRHR (CHO-K1/GnRHR/Ga15, Genscript accession NM_000406) were respectively cultured in the 10-cm dishes and maintained at 37° C./5% CO2. CHO-K1 cells expressing GNRHR were respectively seeded in a 384-well black-wall, clear-bottom plate at a density of 15,000 cells per well in 20 μl of growth medium about 18 hours prior to the day of experiment and maintained at 37° C./5% CO2. Then, 20 μl of dye loading solution was added into the wells and the plates were subsequently placed into a 37° C. incubator for 60 minutes, followed by a 15 minutes' incubation at room temperature. At last, 10 μl of compounds or control agonist were added into respective wells of the assay plate during reading in FLIPR. The plate containing 5× compound and control agonist solution was placed in FLIPR. Solutions were added into the cell plate automatically at the 20 seconds and the fluorescence signal was monitored for an additional 100 seconds (21 sec to 120 sec.). Data were recorded by ScreenWorks (version 3.1) as FMD files with FLIPR and stored on the GenScript computer network for off-line analysis. Data acquisition and analyses was performed using ScreenWorks (version 3.1) program and exported to Excel. The average value of the first 20 seconds' reading was calculated as the baseline and the relative fluorescent units (ΔRFU) intensity values were calculated by subtracting the average value of baseline from the maximum fluorescent units (21 s to 120 s).
The % Stimulation was calculated with the following equation: % Stimulation=(ΔRFUCompound−ΔRFUBackground)/(ΔRFUAgonist control−ΔRFUBackground)×100
Dose response curves were fitted with four-parameter-logistic-equation by the software GraphPad Prism 6.
Equation: four parameter logistic equation. Y=Bottom+(Top-Bottom)/(1+10^((Log EC50−X)×Hillslope))
X is the logarithm of concentration. Y is the response.

The nature of series [3]: Solubility in PBS (LC/UV AUC trend). To be noted: PBS pH 7.4, 0.2 mg/ml; rating 1 (good) to 5 (poor).
The conditions of series [4]: pH 7.4.

This passage reports half-life, activation and Solubility grading results from patent publication US11434258B2, “Compounds (immunorhelins)” (ISR IMMUNE SYSTEM REGULATION HOLDING AB (PUBL), priority 2017, dated 2022).

Where a name gives a salt, the structure may show the parent alone. Read-outs that look alike come from different tables or passages of the source. Non-standard residues stand in square brackets, D forms with d. Residues, ends and D or L forms follow the SMILES beside them. dHis(τ-Bn) = N[C@H](Cc1cn(Cc2ccccc2)cn1)C(=O)O; d2Nal = N[C@H](Cc1ccc2ccccc2c1)C(=O)O; pGlu = O=C1CC[C@@H](C(=O)O)N1

As for `N=C(N)NCCC[C@H](NC(=O)[C@H](Cc1c[nH]c2ccccc12)NC(=O)[C@@H](Cc1ccc2ccccc2c1)NC(=O)[C@H](Cc1c[nH]cn1)NC(=O)[C@H](CO)NC(=O)[C@H](Cc1c[nH]c2ccccc12)NC(=O)[C@H](Cc1c[nH]cn1)NC(=O)[C@@H]1CCC(=O)N1)C(=O)N1CCC[C@H]1C(=O)NCC(N)=O` [Compound 27, pGlu-His-Trp-Ser-His-D-Nal-Trp-Arg-Pro-Gly-amide] ([pGlu]HWSH[d2Nal]WRPG-NH2), the half-life at 0.2 mg/ml in series [1] is > 96. The activation at 1 µM in series [2] came to 108%. Besides, the Solubility grading in series [3] came out at 1.
In the same order, the values of `NC(=O)CNC(=O)[C@@H]1CCCN1C(=O)[C@H](Cc1ccc(O)cc1)NC(=O)[C@H](Cc1c[nH]c2ccccc12)NC(=O)[C@@H](Cc1ccc2ccccc2c1)NC(=O)[C@H](Cc1ccc(O)cc1)NC(=O)[C@H](CO)NC(=O)[C@H](Cc1c[nH]c2ccccc12)NC(=O)[C@H](Cc1c[nH]cn1)NC(=O)[C@@H]1CCC(=O)N1` [Compound 30, pGlu-His-Trp-Ser-Tyr-D-Nal-Trp-Tyr-Pro-Gly-amide] ([pGlu]HWSY[d2Nal]WYPG-NH2) are < 96, 12% and 1.
In the same order, the values of `CCNC(=O)[C@@H]1CCCN1C(=O)[C@H](CCCNC(=N)N)NC(=O)[C@H](CC(C)C)NC(=O)[C@@H](CC(C)C)NC(=O)[C@H](Cc1c[nH]cn1)NC(=O)[C@H](CO)NC(=O)[C@H](Cc1c[nH]c2ccccc12)NC(=O)[C@H](Cc1c[nH]cn1)NC(=O)[C@@H]1CCC(=O)N1` [Compound 42, pGlu-His-Trp-Ser-His-D-Leu-Leu-Arg-Pro-NHEt] ([pGlu]HWSH[dL]LRP-NHEt) are > 96, 102% and 1.
As for `CCNC(=O)[C@@H]1CCCN1C(=O)[C@H](CCCNC(=N)N)NC(=O)[C@H](Cc1c[nH]c2ccccc12)NC(=O)[C@@H](CC(C)C)NC(=O)[C@H](Cc1c[nH]cn1)NC(=O)[C@H](CO)NC(=O)[C@H](Cc1c[nH]c2ccccc12)NC(=O)[C@H](Cc1c[nH]cn1)NC(=O)[C@@H]1CCC(=O)N1` [Compound 47, pGlu-His-Trp-Ser-His-D-Leu-Trp-Arg-Pro-NHEt] ([pGlu]HWSH[dL]WRP-NHEt), the half-life at 0.2 mg/ml in series [1] was > 96. Also, the activation at 1 µM in series [2] was 119%. This compound also came in with a Solubility grading in series [3] of 1.
Regarding `CCNC(=O)[C@@H]1CCCN1C(=O)[C@H](Cc1ccc(O)cc1)NC(=O)[C@H](Cc1c[nH]c2ccccc12)NC(=O)[C@@H](CC(C)C)NC(=O)[C@H](Cc1c[nH]cn1)NC(=O)[C@H](CO)NC(=O)[C@H](Cc1c[nH]c2ccccc12)NC(=O)[C@H](Cc1c[nH]cn1)NC(=O)[C@@H]1CCC(=O)N1` [Compound 50, pGlu-His-Trp-Ser-His-D-Leu-Trp-Tyr-Pro-NHEt] ([pGlu]HWSH[dL]WYP-NHEt), the half-life at 0.2 mg/ml in series [1] was > 96. For the same compound, in series [2], the activation at 1 µM amounted to 105%. Further, the Solubility grading in series [3] is listed as 1.
`CCNC(=O)[C@@H]1CCCN1C(=O)[C@H](CCCNC(=N)N)NC(=O)[C@H](CC(C)C)NC(=O)[C@@H](Cc1cn(Cc2ccccc2)cn1)NC(=O)[C@H](Cc1c[nH]cn1)NC(=O)[C@H](CO)NC(=O)[C@H](Cc1c[nH]c2ccccc12)NC(=O)[C@H](Cc1c[nH]cn1)NC(=O)[C@@H]1CCC(=O)N1` [Compound 56, pGlu-His-Trp-Ser-His-D-Bhi-Leu-Arg-Pro-NHEt] ([pGlu]HWSH[dHis(τ-Bn)]LRP-NHEt): the half-life at 0.2 mg/ml in series [1] is > 96. Besides, in series [2], the activation at 1 µM was found to be 96%. The Solubility grading in series [3] stood at 1.
As for `CCNC(=O)[C@@H]1CCCN1C(=O)[C@H](Cc1ccc(O)cc1)NC(=O)[C@H](Cc1c[nH]c2ccccc12)NC(=O)[C@@H](Cc1cn(Cc2ccccc2)cn1)NC(=O)[C@H](Cc1ccc(O)cc1)NC(=O)[C@H](CO)NC(=O)[C@H](Cc1c[nH]c2ccccc12)NC(=O)[C@H](Cc1c[nH]cn1)NC(=O)[C@@H]1CCC(=O)N1` [Compound 62, pGlu-His-Trp-Ser-Tyr-D-Bhi-Trp-Tyr-Pro-NHEt] ([pGlu]HWSY[dHis(τ-Bn)]WYP-NHEt), in series [1], the half-life at 0.2 mg/ml was < 96. Further, the activation at 1 µM in series [2] stood at 77%. The same compound had a Solubility grading in series [3] of 5.
Consider `CCNC(=O)[C@@H]1CCCN1C(=O)[C@H](Cc1ccc(O)cc1)NC(=O)[C@H](Cc1c[nH]c2ccccc12)NC(=O)[C@@H](Cc1cn(Cc2ccccc2)cn1)NC(=O)[C@H](Cc1c[nH]cn1)NC(=O)[C@H](CO)NC(=O)[C@H](Cc1c[nH]c2ccccc12)NC(=O)[C@H](Cc1c[nH]cn1)NC(=O)[C@@H]1CCC(=O)N1` [Compound 63, pGlu-His-Trp-Ser-His-D-Bhi-Trp-Tyr-Pro-NHEt] ([pGlu]HWSH[dHis(τ-Bn)]WYP-NHEt), for which, in series [1], the half-life at 0.2 mg/ml was < 96. Moreover, the activation at 1 µM in series [2] worked out at 77%. For the same compound, the Solubility grading in series [3] came out at 5.
The like results for `NC(=O)CNC(=O)[C@@H]1CCCN1C(=O)[C@H](Cc1ccc(O)cc1)NC(=O)[C@H](Cc1c[nH]c2ccccc12)NC(=O)[C@@H](Cc1c[nH]c2ccccc12)NC(=O)[C@H](Cc1ccc(O)cc1)NC(=O)[C@H](CO)NC(=O)[C@H](Cc1c[nH]c2ccccc12)NC(=O)[C@H](Cc1c[nH]cn1)NC(=O)[C@@H]1CCC(=O)N1` [Compound 64, pGlu-His-Trp-Ser-Tyr-D-Trp-Trp-Tyr-Pro-Gly-amide] ([pGlu]HWSY[dW]WYPG-NH2) were, in that order, < 96, 50% and 5.
In the case of `N=C(N)NCCC[C@H](NC(=O)[C@H](Cc1c[nH]c2ccccc12)NC(=O)[C@@H](Cc1c[nH]c2ccccc12)NC(=O)[C@H](Cc1ccc(O)cc1)NC(=O)[C@H](CO)NC(=O)[C@H](Cc1c[nH]c2ccccc12)NC(=O)[C@H](Cc1c[nH]cn1)NC(=O)[C@@H]1CCC(=O)N1)C(=O)N1CCC[C@H]1C(=O)NCC(N)=O` [Compound 66, pGlu-His-Trp-Ser-Tyr-D-Trp-Trp-Arg-Pro-Gly-amide] ([pGlu]HWSY[dW]WRPG-NH2), in series [1], the half-life at 0.2 mg/ml is > 96. The activation at 1 µM in series [2] was found to be 83%. Further, the Solubility grading in series [3] turned out to be 5.
Turning to `CCNC(=O)[C@@H]1CCCN1C(=O)[C@H](CCCNC(=N)N)NC(=O)[C@H](Cc1c[nH]c2ccccc12)NC(=O)[C@@H](Cc1cn(Cc2ccccc2)cn1)NC(=O)[C@H](Cc1ccc(O)cc1)NC(=O)[C@H](CO)NC(=O)[C@H](Cc1c[nH]c2ccccc12)NC(=O)[C@H](Cc1c[nH]cn1)NC(=O)[C@@H]1CCC(=O)N1` [Compound 67, pGlu-His-Trp-Ser-Tyr-D-Bhi-Trp-Arg-Pro-NHEt] ([pGlu]HWSY[dHis(τ-Bn)]WRP-NHEt), the half-life at 0.2 mg/ml in series [1] is < 96. The activation at 1 µM in series [2] came to 117%. The Solubility grading in series [3] is 1.
With `CC(C)C[C@H](NC(=O)[C@@H](Cc1c[nH]c2ccccc12)NC(=O)[C@H](Cc1c[nH]cn1)NC(=O)[C@H](CO)NC(=O)[C@H](Cc1c[nH]c2ccccc12)NC(=O)[C@H](Cc1c[nH]cn1)NC(=O)[C@@H]1CCC(=O)N1)C(=O)N[C@@H](CCCNC(=N)N)C(=O)N1CCC[C@H]1C(=O)NCC(N)=O` [Compound 68, pGlu-His-Trp-Ser-His-D-Trp-Leu-Arg-Pro-Gly-amide] ([pGlu]HWSH[dW]LRPG-NH2), the half-life at 0.2 mg/ml in series [1] was > 96. Moreover, the activation at 1 µM in series [2] stood at 86%. This compound also came in with a Solubility grading in series [3] of 1.
In series [4], `CCNC(=O)[C@@H]1CCCN1C(=O)[C@H](CCCNC(=N)N)NC(=O)[C@H](CC(C)C)NC(=O)[C@@H](Cc1cn(Cc2ccccc2)cn1)NC(=O)[C@H](Cc1ccc(O)cc1)NC(=O)[C@H](CO)NC(=O)[C@H](Cc1c[nH]c2ccccc12)NC(=O)[C@H](Cc1cnc[nH]1)NC(=O)[C@@H]1CCC(=O)N1` [Histrelin TFA] yielded a Solubility grading of 2.
In series [4], `CCNC(=O)[C@@H]1CCCN1C(=O)[C@H](CCCNC(=N)N)NC(=O)[C@H](CC(C)C)NC(=O)[C@@H](Cc1cn(Cc2ccccc2)cn1)NC(=O)[C@H](Cc1ccc(O)cc1)NC(=O)[C@H](CO)NC(=O)[C@H](Cc1c[nH]c2ccccc12)NC(=O)[C@H](Cc1cnc[nH]1)NC(=O)[C@@H]1CCC(=O)N1` [Histrelin acetate] displayed a Solubility grading of 4.
